Data taken from US20040063694A1, “Compound useful for the treatment of CNS disorders” (priority 2002, published 2004).

Columns and labels:
[1] = solubility in aqueous systems; assay type: physicochemical
From the text: It is known that rate of dissolution of drug particles can be increased by increasing the surface area of the solid, i.e., decreasing the particle size. Consequently, methods of making finely divided drugs have been studied and efforts have been made to control the size and size range of drug particles in pharmaceutical compositions. For example, dry milling techniques have been used to reduce particle size and thereby influence drug absorption. However, in conventional dry milling, as discussed by Lachman et al., The Theory and Practice of Industrial Pharmacy, Chapter 2, “Milling”, p. 45 (1986), the limit of fineness is reached in the region of about 100 µm (=100,000 nm), where the milled material begins to cake onto the surfaces of the milling chamber. Lachman et al. note that wet grinding is beneficial in further reducing particle size, but that flocculation restricts the lower particle size limit to approximately 10 µm (=10,000 nm). Commercial airjet milling techniques have provided particles ranging in average particle size from as low as about 1 µm to 50 µm (=1,000 nm to 50,000 nm). It is […], however, that the 2-ethyl homolog of this invention is advantageously milled according to the above processes to make the compound having an average particle size of between about 1-200 micrometers. The preferred average particle size is less than 200 micrometers.

5HT-2 receptors = test: activity at 5HT-2 receptors
From the text: (§1) The compound of the invention in all its forms is useful in the treatment of various central nervous system (CNS) disorders or conditions. The compound has been tested using standard behavioral models predictive of antipsychotic activity. These tests include the tests conducted in published papers mentioned above including the rat conditioned avoidance test, the rat catalepsy test and other tests including binding assays to central nervous system receptors including D-1 and D-2 dopamine receptors.

5HT-1 receptors = test: activity at 5HT-1 receptors
From the text: as §1

[2] = twenty-six week dog study, total cholesterol; details: female beagle dogs
Experimental: The dogs are studied over a course of 8 mgs/kg/day per drug for a twenty-six week period and assessed at varying time points for LDL, HDL and total cholesterol as well as having their estrous cycle monitored and measured. […] The preferred normal range in human patients of cholesterol level (total) is described in the Merck Manual as 120-220 mg/Dl.

[3] = twenty-six week dog study, blood glucose levels; details: female beagle dogs
Experimental: In addition to total cholesterol values other parameters were measured including blood glucose levels at pretest, week 13 and week 26 of the study.

[4] = 10 mg/kg, Chakabarti et al. J. Med. Chem. 1980; cited from earlier work
[5] = 16 mg/kg, Chakabarti et al. J. Med. Chem. 1980; cited from earlier work
[6] = beagle dogs; as stated in the '382 patent (alleged); cited from earlier work
[7] = previous dog study on a smaller group of animals, cholesterol; details: for rise in cholesterol: male or female beagle dogs, 4 mgs/kg/day

Row | SMILES | solubility in aqueous systems relative to olanzapine [1] | activity at the 5HT-2 receptors (5HT-2 receptors) | activity at the 5HT-1 receptors (5HT-1 receptors) | total average cholesterol values ([2]; 8 mgs/kg/day, twenty six weeks, effect of normal estrous cycle variations discounted) [mg/dL] | average total cholesterol value, spike at a single point early on in the study ([2]; oral 8 mgs/kg/day) [mgs/dL] | mean total cholesterol values after the full duration of the study ([2]; oral 8 mgs/kg/day, twenty-six weeks, n=15 per arm) [mgs/dL] | blood glucose level, week 13 ([3]; oral 8 mgs/kg/day, week 13) [mg/dL] | blood glucose level, week 26 ([3]; oral 8 mgs/kg/day, week 26) [mg/dL] | blood glucose level, pretest ([3]; pretest (before dosing)) [mg/dL] | rat conditioned avoidance test data [4] | rat catalepsy test [5] | cholesterol raising effect [6] | rise in cholesterol relative to placebo ([7]; male beagle dogs, 8 mgs/kg/day) | rise in cholesterol [7]
1 | CCc1cc2c(s1)Nc1ccccc1N=C2N1CCN(C)CC1 [Example 222, 2-ethyl-10-(4-methyl-1-piperazinyl)-4H-thieno[2,3-b][1,5]benzodiazepine] | slightly less soluble than olanzapine | shows activity | shows activity | ≤ 240 | 237.2 | 186.8 | 87.9 | 77.6 | 82.5 | 2 (31-50% block) | 1 | some cholesterol raising effect | no rise in cholesterol | no rise in cholesterol
2 | Cc1cc2c(s1)Nc1ccccc1N=C2N1CCN(C)CC1 [olanzapine, 2-methyl-10-(4-methyl-1-piperazinyl)-4H-thieno[2,3-b][1,5]benzodiazepine, reference compound] |  |  |  |  |  |  |  |  |  |  |  |  |  | no rise in cholesterol
